Assay results reported in PMC12396409, “Screening and hit evaluation of a microbial metabolite library against the pathogenic Plasmodium falciparum and Toxoplasma gondii parasites” (International Journal for Parasitology: Drugs and Drug …, 2025).
Like-named read-outs stand apart in the source and are kept apart here.

Key:
[1] = test system: T. gondii RH strain (RH-Tub-eYFP) tachyzoites; assay: microbe, parasite or virus in culture; format: cell-based, Toxoplasma gondii; conditions: 72 h, 72 h; for percent parasite growth at 2 µg/mL: Toxoplasma gondii
[2] = test system: P. falciparum 3D7 parasites; assay: P. falciparum growth inhibition assay, 2-cycle (120 h treatment), delayed-death screen and dose-response; format: cell-based, Plasmodium falciparum; conditions: 120 h; for activity at 2 µg/mL: Plasmodium falciparum
[3] = test system: P. falciparum 3D7 parasites; assay: P. falciparum growth inhibition assay, 1-cycle (72 h treatment), SYBR DNA staining (library screen at 2 μg/mL and dose-response); format: cell-based, Plasmodium falciparum; conditions: 72 h; for activity at 2 µg/mL: Plasmodium falciparum
[4] = library screen at 2 μg/mL, % growth, replicate 1, read-out: Tg_72h_%Growth_Rep1
[5] = library screen at 2 μg/mL, % growth, replicate 2, read-out: Tg_72h_%Growth_Rep2
[6] = 3D7, library screen at 2 μg/mL, % growth, replicate 1, read-out: Pf_120h_%Growth_Rep1
[7] = 3D7, library screen at 2 μg/mL, % growth, replicate 2, read-out: Pf_120h_%Growth_Rep2
[8] = 3D7, library screen at 2 μg/mL, % growth, replicate 1, read-out: Pf_72h_%Growth_Rep1
[9] = 3D7, library screen at 2 μg/mL, % growth, replicate 2, read-out: Pf_72h_%Growth_Rep2
[10] = library screen at 2 μg/mL, % growth, replicate 1
[11] = library screen at 2 μg/mL, % growth, replicate 2
[12] = T. gondii, screen at 2 μg/mL, replicate 1
[13] = T. gondii, screen at 2 μg/mL, replicate 2
[14] = P. falciparum, screen at 2 μg/mL, replicate 1
[15] = P. falciparum, screen at 2 μg/mL, replicate 2
[16] = T. gondii, screen at 2 μg/mL, replicate 1, read-out: Tg_72h_%Growth_Rep1
[17] = T. gondii, screen at 2 μg/mL, replicate 2, read-out: Tg_72h_%Growth_Rep2
[18] = 3D7, 120 h, P. falciparum, screen at 2 μg/mL, replicate 1, read-out: Pf_120h_%Growth_Rep1
[19] = 3D7, 120 h, P. falciparum, screen at 2 μg/mL, replicate 2, read-out: Pf_120h_%Growth_Rep2
[20] = 3D7, 72 h, P. falciparum, screen at 2 μg/mL, replicate 1, read-out: Pf_72h_%Growth_Rep1
[21] = 3D7, 72 h, P. falciparum, screen at 2 μg/mL, replicate 2, read-out: Pf_72h_%Growth_Rep2
[22] = 3D7, P. falciparum, screen at 2 μg/mL, replicate 1, read-out: Pf_120h_%Growth_Rep1
[23] = 3D7, P. falciparum, screen at 2 μg/mL, replicate 2, read-out: Pf_120h_%Growth_Rep2
[24] = 3D7, P. falciparum, screen at 2 μg/mL, replicate 1, read-out: Pf_72h_%Growth_Rep1
[25] = 3D7, P. falciparum, screen at 2 μg/mL, replicate 2, read-out: Pf_72h_%Growth_Rep2

C[C@@H](O)[C@H]1C(=O)N2C(C(=O)[O-])=C(SC3Cn4cnc[n+]4C3)[C@H](C)[C@H]12 (stereo partly drawn) [Biapenem]
percent parasite growth at 2 µg/mL [1, 4]: 116% | percent parasite growth at 2 µg/mL [1, 5]: 95.1% | activity at 2 µg/mL [2, 6]: 85.6% | activity at 2 µg/mL [2, 7]: 79.2% | activity at 2 µg/mL [3, 8]: 84.2% | activity at 2 µg/mL [3, 9]: 84.8%

C=C1CCO[C@]2([C@@H](O)[C@@](C)(O)COC(=O)c3ccccc3)NC(=O)[C@@]1(O)NC2=O [Bicyclomycin benzoate]
Tg_72h_%Growth_Rep1 [1, 10]: 81.93% | Tg_72h_%Growth_Rep2 [1, 11]: 95.48% | Pf_120h_%Growth_Rep1 [2, 10]: 148.77% | Pf_120h_%Growth_Rep2 [2, 11]: 99.84% | Pf_72h_%Growth_Rep1 [3, 10]: 94.43% | Pf_72h_%Growth_Rep2 [3, 11]: 88.43%

C=C1CCO[C@]2([C@@H](O)[C@@](C)(O)CO)NC(=O)[C@@]1(O)NC2=O [Bicyclomycin]
percent parasite growth at 2 µg/mL [1, 4]: 126% | percent parasite growth at 2 µg/mL [1, 5]: 100% | activity at 2 µg/mL [2, 6]: 102% | activity at 2 µg/mL [2, 7]: 86.7% | activity at 2 µg/mL [3, 8]: 82.6% | activity at 2 µg/mL [3, 9]: 88%

COc1ccc(-c2coc3cc(O)cc(O)c3c2=O)cc1 [Biochanin A]
Tg_72h_%Growth_Rep1 [1, 10]: 75.87% | Tg_72h_%Growth_Rep2 [1, 11]: 92.06% | Pf_120h_%Growth_Rep1 [2, 10]: 158.83% | Pf_120h_%Growth_Rep2 [2, 11]: 100.13% | Pf_72h_%Growth_Rep1 [3, 10]: 105.15% | Pf_72h_%Growth_Rep2 [3, 11]: 90.67%

COc1cc(C)c2c(c1)O[C@]1(C)Cc3cc4c(c(O)c3[C@H]2O1)C(=O)c1c(O)c(Cl)c(O)c(Cl)c1C4(C)C [Bischloroanthrabenzoxocinone]
Tg_72h_%Growth_Rep1 [1, 10]: 50.70% | Tg_72h_%Growth_Rep2 [1, 11]: 75.56% | Pf_120h_%Growth_Rep1 [2, 10]: 23.08% | Pf_120h_%Growth_Rep2 [2, 11]: 23.09% | Pf_72h_%Growth_Rep1 [3, 10]: 16.72% | Pf_72h_%Growth_Rep2 [3, 11]: 45.58%

CCCCCCCCCC[C@@H](O)C[C@]1(O)O[C@H](CC(O)C(O)C(O)C(O)C(O)CC(O)CC(O)CC(O)CC(O)C(C)C(O)C(C)C(O)CC(O)C(C)C(O)C(O)C[C@H](C)C[C@H](C)/C=C(C)/C(O)=C2\C(=O)CN(C)C2=O)[C@@H](O)[C@H](O)[C@@H]1O (stereo partly drawn) [Blasticidin A]
Tg_72h_%Growth_Rep1 [1, 12]: 83.39% | Tg_72h_%Growth_Rep2 [1, 13]: 93.60% | Pf_120h_%Growth_Rep1 [2, 14]: 135.50% | Pf_120h_%Growth_Rep2 [2, 15]: 87.28% | Pf_72h_%Growth_Rep1 [3, 14]: 84.79% | Pf_72h_%Growth_Rep2 [3, 15]: 87.65%

CN(CC[C@H](N)CC(=O)N[C@H]1C=C[C@H](n2ccc(N)nc2=O)O[C@@H]1C(=O)O)C(=N)N [Blasticidin S]
percent parasite growth at 2 µg/mL [1, 16]: 73.3% | percent parasite growth at 2 µg/mL [1, 17]: 30% | activity at 2 µg/mL [2, 18]: 5.52% | activity at 2 µg/mL [2, 19]: -7.54% | activity at 2 µg/mL [3, 20]: 4.31% | activity at 2 µg/mL [3, 21]: 2.87%

C[C@@H]1C[C@H](C)C[C@H](C)[C@@H](O)CC(=O)O[C@H]([C@@H]2CCC[C@H]2C(=O)O)C/C=C/C=C(/C#N)[C@H](O)[C@@H](C)C1 [Borrelidin]
percent parasite growth at 2 µg/mL [1, 16]: 0.76% | percent parasite growth at 2 µg/mL [1, 17]: 1.62% | activity at 2 µg/mL [2, 22]: 4.36% | activity at 2 µg/mL [2, 23]: 5.57% | activity at 2 µg/mL [3, 24]: 2.87% | activity at 2 µg/mL [3, 25]: -1.49%

C[C@H]1CCC/C=C/[C@@H]2C[C@H](O)C[C@H]2[C@H](O)/C=C/C(=O)O1 [Brefeldin A]
percent parasite growth at 2 µg/mL [1, 16]: -1.55% | percent parasite growth at 2 µg/mL [1, 17]: 0.61% | activity at 2 µg/mL [2, 18]: 5.53% | activity at 2 µg/mL [2, 19]: 2.87% | activity at 2 µg/mL [3, 20]: 4.33% | activity at 2 µg/mL [3, 21]: -0.69%

O=C1N[C@@H](Cc2c[nH]c3ccccc23)C(=O)N2CCC[C@@H]12 [Brevianamide F]
percent parasite growth at 2 µg/mL [1, 16]: 83.3% | percent parasite growth at 2 µg/mL [1, 17]: 92% | activity at 2 µg/mL [2, 22]: 148% | activity at 2 µg/mL [2, 23]: 91% | activity at 2 µg/mL [3, 24]: 103% | activity at 2 µg/mL [3, 25]: 84.4%

O=C(N[C@H](CO)[C@H](O)c1ccc([N+](=O)[O-])cc1)C(Br)Br [Bromamphenicol]
Tg_72h_%Growth_Rep1 [1, 12]: 80.35% | Tg_72h_%Growth_Rep2 [1, 13]: 93.07% | Pf_120h_%Growth_Rep1 [2, 14]: 132.78% | Pf_120h_%Growth_Rep2 [2, 15]: 78.55% | Pf_72h_%Growth_Rep1 [3, 14]: 93.46% | Pf_72h_%Growth_Rep2 [3, 15]: 85.21%

COc1ccc(Br)c(C)c1C(=O)O[C@@H]1C[C@H](O[C@@H]2C(C)O[C@@H](O[C@H]3CCC[C@@H]4[C@@H]3C=C[C@H]3CCCC/C=C/[C@@H]5C=C(C(=O)O)[C@H](C)C[C@]56OC(=O)C(=C6O)OC(=O)[C@@]43C)C[C@H]2O)O[C@H](C)[C@H]1O (stereo partly drawn) [Bromothricin]
Tg_72h_%Growth_Rep1 [1, 12]: 83.92% | Tg_72h_%Growth_Rep2 [1, 13]: 93.14% | Pf_120h_%Growth_Rep1 [2, 14]: 159.83% | Pf_120h_%Growth_Rep2 [2, 15]: 97.51% | Pf_72h_%Growth_Rep1 [3, 14]: 90.13% | Pf_72h_%Growth_Rep2 [3, 15]: 84.25%

COC(=O)[C@]1(Cc2ccc(O)cc2)OC(=O)C(O)=C1c1ccc(O)cc1 [Butyrolactone II]
Tg_72h_%Growth_Rep1 [1, 12]: 129.35% | Tg_72h_%Growth_Rep2 [1, 13]: 92.93% | Pf_120h_%Growth_Rep1 [2, 14]: 89.95% | Pf_120h_%Growth_Rep2 [2, 15]: 95.11% | Pf_72h_%Growth_Rep1 [3, 14]: 83.73% | Pf_72h_%Growth_Rep2 [3, 15]: 86.44%

COC(=O)[C@]1(Cc2ccc(O)c(CC=C(C)C)c2)OC(=O)C(O)=C1c1ccc(O)cc1 [Butyrolactone I]
percent parasite growth at 2 µg/mL [1, 16]: 85.8% | percent parasite growth at 2 µg/mL [1, 17]: 88.7% | activity at 2 µg/mL [2, 18]: 147% | activity at 2 µg/mL [2, 19]: 92.6% | activity at 2 µg/mL [3, 20]: 72.4% | activity at 2 µg/mL [3, 21]: 88.5%

COC(=O)[C@]1(Cc2ccc3c(c2)C[C@H](O)C(C)(C)O3)OC(=O)C(O)=C1c1ccc(O)cc1 [Butyrolactone V]
percent parasite growth at 2 µg/mL [1, 16]: 130% | percent parasite growth at 2 µg/mL [1, 17]: 90% | activity at 2 µg/mL [2, 22]: 100% | activity at 2 µg/mL [2, 23]: 94.5% | activity at 2 µg/mL [3, 24]: 83.9% | activity at 2 µg/mL [3, 25]: 90.6%

CCCC(=O)N[C@H]1CCOC1=O [Butyryl-L-homoserine lactone]
Tg_72h_%Growth_Rep1 [1, 12]: 135.04% | Tg_72h_%Growth_Rep2 [1, 13]: 102.04% | Pf_120h_%Growth_Rep1 [2, 14]: 71.18% | Pf_120h_%Growth_Rep2 [2, 15]: 93.77% | Pf_72h_%Growth_Rep1 [3, 14]: 70.61% | Pf_72h_%Growth_Rep2 [3, 15]: 82.94%

CCC[C@H]1CC2=C(C[C@@H](CC)CC3=C1C(=O)OC3=O)C(=O)OC2=O [Byssochlamic acid]
percent parasite growth at 2 µg/mL [1, 16]: 92.1% | percent parasite growth at 2 µg/mL [1, 17]: 94.4% | activity at 2 µg/mL [2, 22]: 129% | activity at 2 µg/mL [2, 23]: 88.1% | activity at 2 µg/mL [3, 24]: 89.8% | activity at 2 µg/mL [3, 25]: 83.3%
